Molecular target: T1, TtCan1 (Thermus thermophilus, UniProt Q53W14)
T1 construct: gene TTHB155; codon-optimised synthetic gene, E. coli BL21(DE3); N-terminal His6-TwinStrep-SUMO tag removed; monomeric
T1 sequence (Q53W14 1-636): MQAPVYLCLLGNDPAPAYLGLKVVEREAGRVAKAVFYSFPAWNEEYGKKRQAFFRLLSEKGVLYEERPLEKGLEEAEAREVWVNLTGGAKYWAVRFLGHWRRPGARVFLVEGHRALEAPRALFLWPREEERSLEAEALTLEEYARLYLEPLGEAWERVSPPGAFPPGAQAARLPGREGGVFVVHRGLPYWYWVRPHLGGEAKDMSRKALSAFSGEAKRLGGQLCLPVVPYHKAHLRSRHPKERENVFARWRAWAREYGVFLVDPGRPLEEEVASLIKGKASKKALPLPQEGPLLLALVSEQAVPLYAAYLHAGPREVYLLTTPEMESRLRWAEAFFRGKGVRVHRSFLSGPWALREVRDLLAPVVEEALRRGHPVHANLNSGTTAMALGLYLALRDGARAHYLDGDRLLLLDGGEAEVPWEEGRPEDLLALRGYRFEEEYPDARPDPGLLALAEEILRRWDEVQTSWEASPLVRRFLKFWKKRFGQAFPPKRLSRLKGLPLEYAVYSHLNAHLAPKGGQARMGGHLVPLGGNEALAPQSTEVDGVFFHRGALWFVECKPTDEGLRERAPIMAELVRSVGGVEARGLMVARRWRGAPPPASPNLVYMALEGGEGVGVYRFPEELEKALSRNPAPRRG
Test: ssRNA cleavage, denaturing PAGE; fluorescent RNA reporters
Assay type: biochemical
Conditions: allosteric activator of ssRNase activity; 200 nM enzyme, 20 nM cA4, pH 7.8, 60 °C

Structure (SMILES): Nc1ncnc2c1ncn2[C@@H]1O[C@@H]2COP(=O)(O)O[C@H]3[C@@H](O)[C@H](n4cnc5c(N)ncnc54)O[C@@H]3COP(=O)(O)O[C@H]3[C@@H](O)[C@H](n4cnc5c(N)ncnc54)O[C@@H]3COP(=O)(O)O[C@H]3[C@@H](O)[C@H](n4cnc5c(N)ncnc54)O[C@@H]3COP(=O)(O)O[C@H]2[C@H]1O [cA4]
- ssRNA cleavage, denaturing PAGE; fluorescent RNA reporters: TtCan1 is a cA4-dependent single-stranded RNase (ssRNA) but does not cleave ssDNA

— paper PMC9040678, “Sequence-specific capture and concentration of viral RNA by type III CRISPR system enhances diagnostic” (Research Square, 2022)
